For one compound, IC50 results are on record in ChEMBL document CHEMBL5034025 (Eur J Med Chem, 2021).

The target in this experiment is Glutaminyl-peptide cyclotransferase (Homo sapiens, UniProt Q16769). The experiment can be described thus: Inhibition of human recombinant glutaminyl cyclase using H-Gln-AMC hydrobromide as substrate measured after 15 mins by fluorimetry.
Sequence of Glutaminyl-peptide cyclotransferase (Q16769 whole entry): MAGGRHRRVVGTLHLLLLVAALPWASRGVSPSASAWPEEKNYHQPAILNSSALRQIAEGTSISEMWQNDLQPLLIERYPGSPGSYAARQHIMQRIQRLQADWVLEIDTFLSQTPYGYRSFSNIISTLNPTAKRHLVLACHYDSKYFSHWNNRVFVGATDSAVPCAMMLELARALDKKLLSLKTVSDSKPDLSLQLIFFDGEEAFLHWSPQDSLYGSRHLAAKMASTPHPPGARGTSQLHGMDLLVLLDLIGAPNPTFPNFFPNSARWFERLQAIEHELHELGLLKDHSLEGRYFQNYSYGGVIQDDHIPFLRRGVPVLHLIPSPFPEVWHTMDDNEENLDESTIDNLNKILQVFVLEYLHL

With `COc1ccc(N(C(=S)NCCCn2cncc2C)C2CCN(C)CC2)cc1OC`, the IC50 is 6.1 nM.
